The series is described as follows: activity coefficient (dimensionless); of the first substance listed, at infinite dilution; xn = mol fraction of the nth substance listed. To be noted: Liquid, Chromatography, x1 = 0.

This is an account of results in the NIST ThermoML archive (doi:10.1021/je050440b).

Numbers after ± are expanded uncertainties.

`CCCO` [propan-1-ol] + CCCC[N+](C)(C)C.O=S(=O)([N-]S(=O)(=O)C(F)(F)F)C(F)(F)F: the activity coefficient (301.75 K) came to 2.76 ± 0.19, the activity coefficient (312.15 K) amounted to 2.43 ± 0.17, the activity coefficient (322.85 K) came to 2.14 ± 0.15 and the activity coefficient (333.35 K) is 1.9 ± 0.13.

With `CC(C)O` [propan-2-ol] + CCCC[N+](C)(C)C.O=S(=O)([N-]S(=O)(=O)C(F)(F)F)C(F)(F)F, the activity coefficient was determined as 2.4 ± 0.16 (302.55 K); 2.14 ± 0.15 (312.15 K); 1.89 ± 0.13 (322.85 K); 1.67 ± 0.11 (333.35 K); 1.53 ± 0.1 (343.65 K); 1.37 ± 0.09 (354.05 K).

Regarding `CCC=O` [propanal] + CCCC[N+](C)(C)C.O=S(=O)([N-]S(=O)(=O)C(F)(F)F)C(F)(F)F, the activity coefficient is, setting by setting: (301.65 K) 0.58 ± 0.04; (312.25 K) 0.57 ± 0.04; (322.75 K) 0.54 ± 0.04; (333.25 K) 0.53 ± 0.04; (343.55 K) 0.52 ± 0.04.

Take `CCCc1ccccc1` [propylbenzene] + CCCC[N+](C)(C)C.O=S(=O)([N-]S(=O)(=O)C(F)(F)F)C(F)(F)F: the activity coefficient is, setting by setting: (333.25 K) 3.95 ± 0.27; (343.65 K) 3.86 ± 0.26; (354.05 K) 3.79 ± 0.26; (364.45 K) 3.69 ± 0.25.

For the compound `Cc1ccccc1` [toluene] + CCCC[N+](C)(C)C.O=S(=O)([N-]S(=O)(=O)C(F)(F)F)C(F)(F)F, the activity coefficient worked out at 1.73 ± 0.12 (322.75 K), 1.71 ± 0.11 (333.25 K), 1.7 ± 0.11 (343.65 K) and 1.68 ± 0.11 (364.45 K).

As to `ClC(Cl)Cl` [trichloromethane] + CCCC[N+](C)(C)C.O=S(=O)([N-]S(=O)(=O)C(F)(F)F)C(F)(F)F, the activity coefficient came to 1.03 ± 0.06 (301.75 K), 1.04 ± 0.07 (312.15 K) and 1.04 ± 0.07 (333.25 K).

`CCCCCCCCCCC` [undecane] + CCCC[N+](C)(C)C.O=S(=O)([N-]S(=O)(=O)C(F)(F)F)C(F)(F)F: the activity coefficient turned out to be 94.4 ± 6.5 (333.25 K); 83.9 ± 5.8 (343.65 K); 73.3 ± 5 (354.05 K); 66.3 ± 4.5 (364.55 K); 56 ± 3.8 (374.95 K).
